Like-named read-outs stand apart in the source and are kept apart here.
How the values were obtained:
gastric acid secretion = details: experimental tests on animals and humans; prior art; cited from earlier work
histamine H2 receptors [1] = molecular target: T1, histamine H2 receptors (Cavia porcellus, UniProt P47747); experiment: Antagonistic activity to the histamine H2 receptors "in vitro" on insulated atrium auricolas of Guinea pig heart; details: for inhibition at 10 µM / inhibition at 1 µM / inhibition at 0.1 µM / inhibition at 0.01 µM: guinea pig, 0.5 h, read-out: Antagonizing activity to histamine H2 receptors; for inhibition at 10 µM: compound 1·10^-5 M/L; for inhibition at 1 µM: compound 1·10^-6 M/L; for inhibition at 0.1 µM: compound 1·10^-7 M/L; for inhibition at 0.01 µM: compound 1·10^-8 M/L; for antagonistic action to the histamine H2 receptors (in words): in vitro
T1 construct: tests on insulated atrium auricolas of Guinea pig heart; from tissue; host or cells: isolated guinea pig heart atrium
T1 sequence (P47747 whole entry): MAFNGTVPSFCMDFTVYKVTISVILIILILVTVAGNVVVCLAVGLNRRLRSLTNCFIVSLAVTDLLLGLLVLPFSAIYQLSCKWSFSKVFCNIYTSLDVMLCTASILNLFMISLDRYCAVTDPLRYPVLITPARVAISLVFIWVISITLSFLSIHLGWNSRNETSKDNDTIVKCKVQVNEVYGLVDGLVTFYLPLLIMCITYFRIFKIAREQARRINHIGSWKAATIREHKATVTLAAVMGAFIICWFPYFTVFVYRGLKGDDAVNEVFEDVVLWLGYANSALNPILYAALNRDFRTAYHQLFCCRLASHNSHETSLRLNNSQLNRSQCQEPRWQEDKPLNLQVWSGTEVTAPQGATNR
Protocol: (§1) The preparations were a solution of the substances in 2.5% citric acid for the "in vitro" test and 5% citric acid for the "in vivo" test respectively. Citric acid was diluted in normal physiologic saline at neutral pH.
This activity was evaluated "in vitro" by carrying out tests on insulated atrium auricolas of Guinea pig heart. […] Metering was carried out by placing the preparation into a vessel containing a Ringer-Locke solution wherein pure oxygen was bubbling, at a temperature of 37° C. A response of the organ "in vitro" was first established at cumulative histamine doses of 2.5.10^-7, 5.10^-7, 10^-6, 5.10^-6, 10^-5 M/L. After obtaining two constant lines with histamine at a time interval of one hour from one another, the substances under test were added to the bath and after a 30 minutes contact with the preparation, a new histamine response line in the presence of the substance under test was drawn. The activity was tested at various concentrations of the new compounds (10^-5, 10^-6, 10^-7 and in one case 10^-8 M/L).

gastric secretion = experiment: Activity on gastric secretion "in vivo" (volume and total acidity of gastric juice after pylorus tieing, Shay); parameters: species or system male Wistar rats; details: for ED50 / change in vivo at 20 mg/kg: Rattus norvegicus, po; for ED50: read-out: DE50 in rat calculated on total acidity (mEq/4 hours); for Total acidity gastric juice secretion / Volume gastric juice secretion / change in vivo at 20 mg/kg: 20 mg/kg oral; for ability to reduce the gastric acid secretion (in words): volume and total acidity of gastric juice
Protocol: as §1
The ability of the compounds according to the present invention to inhibit the gastric secretion was studied "in vivo" both by evaluating the volume reduction of gastric juice, and by measuring the total acidity of same after administration of the substances under test according to the Takeda method (see the aforementioned literature).
To this end, tests have been made on male Wistar rats of an average weight of 200 g. The animals, 10 for each substance, were placed into individual cages provided with ground grating in order to avoid coprophagy, without food but with free access to water for 24 hours before test. […] Four hours later the animals were sacrificed and the gastric juice was collected, of which the volume expressed in ml and the total acidity expressed in mEq was measured. The gastric juice ([…] ) was titrated with 0.1N NaOH to pH 7 to determine the acid concentration. The total acidity was then calculated as the product of the total volume of gastric juice by the acid concentration.

histamine H2 receptors [2] = molecular target: T1, histamine H2 receptors; details: Daly M. J., Br. J. Pharmac., 72, 49, 1982; cited from earlier work
in vivo = details: po; for LD50 at 360 h: mouse; for LD50: rat
From the text: The animals were kept under observation by checking mortality and possible pain signs for 15 days from start of test.

[3] = 6 hours before pilorus tieing, read-out: Total acidity gastric juice secretion, Variation %
[4] = 6 hours before pilorus tieing, read-out: Volume gastric juice secretion, Variation %
[5] = 12 hours before pilorus tieing, read-out: Total acidity gastric juice secretion, Variation %
[6] = 12 hours before pilorus tieing, read-out: Volume gastric juice secretion, Variation %
[7] = 24 hours before pilorus tieing, read-out: Total acidity gastric juice secretion, Variation %
[8] = 24 hours before pilorus tieing, read-out: Volume gastric juice secretion, Variation %
[9] = 36 hours before pilorus tieing, read-out: Total acidity gastric juice secretion, Variation %
[10] = 36 hours before pilorus tieing, read-out: Volume gastric juice secretion, Variation %
[11] = per os, 1 hour before pilorus tieing

CNC(=S)NCCCCc1cnc[nH]1 [Burimamide]
reduction of gastric acid secretion (in words) (gastric acid secretion): effective to reduce the gastric acid secretion

CN/C(=N/CCSCc1nc[nH]c1C)NC#N [Cimetidine, reference compound]
inhibition at 10 µM (histamine H2 receptors [1]; histamine 1·10^-5 M/L): 28% | inhibition at 10 µM (histamine H2 receptors [1]; histamine 1·10^-6 M/L): 100% | inhibition at 10 µM (histamine H2 receptors [1]; histamine 2,5·10^-7 M/L): 100% | inhibition at 10 µM (histamine H2 receptors [1]; histamine 5·10^-6 M/L): 50% | inhibition at 10 µM (histamine H2 receptors [1]; histamine 5·10^-7 M/L): 100% | inhibition at 1 µM (histamine H2 receptors [1]; histamine 1·10^-5 M/L): 10% | inhibition at 1 µM (histamine H2 receptors [1]; histamine 1·10^-6 M/L): 90% | inhibition at 1 µM (histamine H2 receptors [1]; histamine 2,5·10^-7 M/L): 100% | inhibition at 1 µM (histamine H2 receptors [1]; histamine 5·10^-6 M/L): 40% | inhibition at 1 µM (histamine H2 receptors [1]; histamine 5·10^-7 M/L): 90% | inhibition at 0.1 µM (histamine H2 receptors [1]; histamine 1·10^-5 M/L): 0% | inhibition at 0.1 µM (histamine H2 receptors [1]; histamine 1·10^-6 M/L): 45% | inhibition at 0.1 µM (histamine H2 receptors [1]; histamine 2,5·10^-7 M/L): 80% | inhibition at 0.1 µM (histamine H2 receptors [1]; histamine 5·10^-6 M/L): 22% | inhibition at 0.1 µM (histamine H2 receptors [1]; histamine 5·10^-7 M/L): 80% | reduction of gastric acid secretion (in words) (gastric acid secretion): effective to reduce the gastric acid secretion | ED50 (gastric secretion): 30 mg/kg | antagonism of histamine induced increase of contraction frequency of the insulated atrium (in words) (histamine H2 receptors [2]): competitively antagonize

CN(C)Cc1ccc(CSCCNc2nc(-c3ccc4ccccc4c3)cs2)o1 [Example No. 6, 2-(2-(((5-(dimethylamino)methyl-2-furanyl)methyl)thio)ethyl)-amino-4-(2-naphthyl)-thiazole]
inhibition at 10 µM (histamine H2 receptors [1]; histamine 1·10^-5 M/L): 90% | inhibition at 10 µM (histamine H2 receptors [1]; histamine 1·10^-6 M/L): 100% | inhibition at 10 µM (histamine H2 receptors [1]; histamine 2,5·10^-7 M/L): 100% | inhibition at 10 µM (histamine H2 receptors [1]; histamine 5·10^-6 M/L): 90% | inhibition at 10 µM (histamine H2 receptors [1]; histamine 5·10^-7 M/L): 100% | inhibition at 1 µM (histamine H2 receptors [1]; histamine 1·10^-5 M/L): 40% | inhibition at 1 µM (histamine H2 receptors [1]; histamine 1·10^-6 M/L): 90% | inhibition at 1 µM (histamine H2 receptors [1]; histamine 2,5·10^-7 M/L): 100% | inhibition at 1 µM (histamine H2 receptors [1]; histamine 5·10^-6 M/L): 70% | inhibition at 1 µM (histamine H2 receptors [1]; histamine 5·10^-7 M/L): 100% | inhibition at 0.1 µM (histamine H2 receptors [1]; histamine 1·10^-5 M/L): 35% | inhibition at 0.1 µM (histamine H2 receptors [1]; histamine 1·10^-6 M/L): 70% | inhibition at 0.1 µM (histamine H2 receptors [1]; histamine 2,5·10^-7 M/L): 95% | inhibition at 0.1 µM (histamine H2 receptors [1]; histamine 5·10^-6 M/L): 50% | inhibition at 0.1 µM (histamine H2 receptors [1]; histamine 5·10^-7 M/L): 95% | inhibition at 0.01 µM (histamine H2 receptors [1]; histamine 1·10^-5 M/L): 15% | inhibition at 0.01 µM (histamine H2 receptors [1]; histamine 1·10^-6 M/L): 70% | inhibition at 0.01 µM (histamine H2 receptors [1]; histamine 2,5·10^-7 M/L): 95% | inhibition at 0.01 µM (histamine H2 receptors [1]; histamine 5·10^-6 M/L): 50% | inhibition at 0.01 µM (histamine H2 receptors [1]; histamine 5·10^-7 M/L): 85% | antagonistic action to the histamine H2 receptors (in words) (histamine H2 receptors [1]): interesting ability | LD50 at 360 h (in vivo): 2100 mg/kg | LD50 (in vivo): 2800 mg/kg | Total acidity gastric juice secretion (gastric secretion; 6 hours before pilorus tieing): 0,05 mEq/4 hours | Volume gastric juice secretion (gastric secretion; 6 hours before pilorus tieing): 3,0 ml/4 hours | Total acidity gastric juice secretion (gastric secretion; 12 hours before pilorus tieing): 0,04 mEq/4 hours | Volume gastric juice secretion (gastric secretion; 12 hours before pilorus tieing): 2,9 ml/4 hours | Total acidity gastric juice secretion (gastric secretion; 24 hours before pilorus tieing): 0,12 mEq/4 hours | Volume gastric juice secretion (gastric secretion; 24 hours before pilorus tieing): 4,5 ml/4 hours | Total acidity gastric juice secretion (gastric secretion; 36 hours before pilorus tieing): 0,12 mEq/4 hours | Volume gastric juice secretion (gastric secretion; 36 hours before pilorus tieing): 5,0 ml/4 hours | change in vivo at 20 mg/kg (gastric secretion; [3]): -70% | change in vivo at 20 mg/kg (gastric secretion; [4]): -43% | change in vivo at 20 mg/kg (gastric secretion; [5]): -73% | change in vivo at 20 mg/kg (gastric secretion; [6]): -37% | change in vivo at 20 mg/kg (gastric secretion; [7]): -29% | change in vivo at 20 mg/kg (gastric secretion; [8]): -20% | change in vivo at 20 mg/kg (gastric secretion; [9]): -25% | change in vivo at 20 mg/kg (gastric secretion; [10]): -11% | ED50 (gastric secretion; [11]): 1.8 mg/kg | ability to reduce the gastric acid secretion (in words) (gastric secretion): interesting ability

CN(C)Cc1ccc(CSCCNc2nc(-c3ccc(Oc4ccccc4)cc3)cs2)o1 [Example No. 13, 2-(2-(((5-(dimethylamino)methyl-2-furanyl)methyl)thio)ethyl)amino-4-(4-phenoxy)phenyl-thiazole]
inhibition at 10 µM (histamine H2 receptors [1]; histamine 1·10^-5 M/L): 90% | inhibition at 10 µM (histamine H2 receptors [1]; histamine 1·10^-6 M/L): 95% | inhibition at 10 µM (histamine H2 receptors [1]; histamine 2,5·10^-7 M/L): 100% | inhibition at 10 µM (histamine H2 receptors [1]; histamine 5·10^-6 M/L): 90% | inhibition at 10 µM (histamine H2 receptors [1]; histamine 5·10^-7 M/L): 100% | inhibition at 1 µM (histamine H2 receptors [1]; histamine 1·10^-5 M/L): 38% | inhibition at 1 µM (histamine H2 receptors [1]; histamine 1·10^-6 M/L): 80% | inhibition at 1 µM (histamine H2 receptors [1]; histamine 2,5·10^-7 M/L): 90% | inhibition at 1 µM (histamine H2 receptors [1]; histamine 5·10^-6 M/L): 65% | inhibition at 1 µM (histamine H2 receptors [1]; histamine 5·10^-7 M/L): 90% | inhibition at 0.1 µM (histamine H2 receptors [1]; histamine 1·10^-5 M/L): 40% | inhibition at 0.1 µM (histamine H2 receptors [1]; histamine 1·10^-6 M/L): 50% | inhibition at 0.1 µM (histamine H2 receptors [1]; histamine 2,5·10^-7 M/L): 90% | inhibition at 0.1 µM (histamine H2 receptors [1]; histamine 5·10^-6 M/L): 30% | inhibition at 0.1 µM (histamine H2 receptors [1]; histamine 5·10^-7 M/L): 70% | antagonistic action to the histamine H2 receptors (in words) (histamine H2 receptors [1]): interesting ability | LD50 at 360 h (in vivo): 3000 mg/kg | LD50 (in vivo): > 3000 mg/kg | Total acidity gastric juice secretion (gastric secretion; 6 hours before pilorus tieing): 0,09 mEq/4 hours | Volume gastric juice secretion (gastric secretion; 6 hours before pilorus tieing): 3,9 ml/4 hours | Total acidity gastric juice secretion (gastric secretion; 12 hours before pilorus tieing): 0,09 mEq/4 hours | Volume gastric juice secretion (gastric secretion; 12 hours before pilorus tieing): 3,9 ml/4 hours | Total acidity gastric juice secretion (gastric secretion; 24 hours before pilorus tieing): 0,13 mEq/4 hours | Volume gastric juice secretion (gastric secretion; 24 hours before pilorus tieing): 4,7 ml/4 hours | Total acidity gastric juice secretion (gastric secretion; 36 hours before pilorus tieing): 0,15 mEq/4 hours | Volume gastric juice secretion (gastric secretion; 36 hours before pilorus tieing): 5,1 ml/4 hours | change in vivo at 20 mg/kg (gastric secretion; [3]): -47% | change in vivo at 20 mg/kg (gastric secretion; [4]): -26% | change in vivo at 20 mg/kg (gastric secretion; [5]): -40% | change in vivo at 20 mg/kg (gastric secretion; [6]): -23% | change in vivo at 20 mg/kg (gastric secretion; [7]): -23% | change in vivo at 20 mg/kg (gastric secretion; [8]): -16% | change in vivo at 20 mg/kg (gastric secretion; [9]): -6% | change in vivo at 20 mg/kg (gastric secretion; [10]): -9% | ED50 (gastric secretion; [11]): 2.6 mg/kg | ability to reduce the gastric acid secretion (in words) (gastric secretion): interesting ability

C/N=C(\S)NCCSCc1[nH]cnc1C [Metiamide]
reduction of gastric acid secretion (in words) (gastric acid secretion): effective to reduce the gastric acid secretion

Source: patent US4652575A, “2-(ethylene-thio methyl furanyl)amino thiazole derivatives having acid secretion inhibiting activity” (Medosan Industrie Biochimiche Riunite S.p.A., priority 1984, dated 1987)
